In patent US10689354B2, “Aminoazole derivative” (Teijin Pharma Limited, priority 2015, dated 2020):

Molecular target: T1, androgen receptor (AR-LBD) (Rattus norvegicus, UniProt P15207)
T1 construct: 5 μL of 2×AR-LBD/Fluoromone AL Red Complex contained in the kit; purchased Invitrogen
T1 sequence (P15207 651-882 limits assumed): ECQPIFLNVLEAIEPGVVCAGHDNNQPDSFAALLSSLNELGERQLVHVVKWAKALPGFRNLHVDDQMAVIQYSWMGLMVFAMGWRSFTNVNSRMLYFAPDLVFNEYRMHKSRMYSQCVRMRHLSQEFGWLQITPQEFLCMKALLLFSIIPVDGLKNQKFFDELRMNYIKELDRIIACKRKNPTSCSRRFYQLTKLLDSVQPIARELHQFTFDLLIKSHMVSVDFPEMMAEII
Experiment: Evaluation of androgen receptor affinity (PolarScreen Androgen Receptor Competitor Assay Kit, Red; fluorescence polarization)
Conditions: 22° C. for 5 hours, relative to binding rate of 1 μM DHT, read-out: AR affinity (pEC50) (converted)
Summary of the method: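 Fluorescence polarization read-out after 5 h at 22° C of compound with a red-fluorophore-labelled AR-LBD complex. Displacement is scaled against 1 μM DHT, and the log reciprocal of the concentration reaching half that effect gives pEC50 via four-parameter curve fitting.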

## Cc1sc(N(CCc2ccc(C#N)cc2)CC2CCCCC2)nc1C(=O)NS(=O)(=O)Cc1cccc(F)c1 [Compound 720, 2-[2-(4-cyanophenyl)ethyl-(cyclohexylmethyl)amino]-N-[(3-fluorophenyl)methylsulfonyl]-5-methyl-thiazole-4-carboxamide]
  EC50: > 2000 nM

## Cc1sc(N(CCc2ccc(C(N)=O)cc2)Cc2ccccc2)nc1C(=O)NS(C)(=O)=O [Compound 737, 2-[benzyl-[2-(4-carbamoylphenyl)ethyl]amino]-5-methyl-N-methylsulfonyl-thiazole-4-carboxamide]
  EC50: > 2000 nM

## Cc1sc(N(CCc2ccncc2)Cc2ccccc2)nc1C(=O)NS(C)(=O)=O [Compound 743, 2-[benzyl-[2-(4-pyridyl)ethyl]amino]-5-methyl-N-methylsulfonyl-thiazole-4-carboxamide]
  EC50: 631 nM

## Cc1sc(N(Cc2ccccc2)c2cc3ccccc3cn2)nc1C(=O)NS(C)(=O)=O [Compound 745, 2-[benzyl(3-isoquinolyl)amino]-5-methyl-N-methylsulfonyl-thiazole-4-carboxamide]
  EC50: > 2000 nM

## Cc1sc(N(Cc2ccccc2)c2ccc3ccn(C)c3c2)nc1C(=O)NS(C)(=O)=O [Compound 746, 2-[benzyl-(1-methylindol-6-yl)amino]-5-methyl-N-methylsulfonyl-thiazole-4-carboxamide]
  EC50: > 2000 nM

## COc1cccc(N(Cc2ccccc2)c2nc(C(=O)NS(C)(=O)=O)c(C)s2)c1 [Example 204, 2-(N-benzyl-3-methoxy-anilino)-5-methyl-N-methylsulfonyl-thiazole-4-carboxamide]
  EC50: > 2000 nM

## Cc1sc(N(Cc2ccccc2)c2cccc(O)c2)nc1C(=O)NS(C)(=O)=O [Example 205, 2-(N-benzyl-3-hydroxy-anilino)-5-methyl-N-methylsulfonyl-thiazole-4-carboxamide]
  EC50: > 2000 nM

## Cc1sc(N(Cc2ccccc2)c2ccc(O)cc2)nc1C(=O)NS(C)(=O)=O [Example 206, 2-(N-benzyl-4-hydroxy-anilino)-5-methyl-N-methylsulfonyl-thiazole-4-carboxamide]
  EC50: > 2000 nM

## Cc1sc(N(Cc2ccccc2)c2ccccc2O)nc1C(=O)NS(C)(=O)=O [Example 207, 2-(N-benzyl-2-hydroxy-anilino)-5-methyl-N-methylsulfonyl-thiazole-4-carboxamide]
  EC50: > 2000 nM

## Cc1sc(N(Cc2ccccc2)c2cccc(OCCOCc3ccccc3)c2)nc1C(=O)NS(C)(=O)=O [Example 208, 2-[N-benzyl-3-(2-benzyloxyethoxy)anilino]-5-methyl-N-methylsulfonyl-thiazole-4-carboxamide]
  EC50: > 2000 nM

## Cc1sc(N(Cc2ccccc2)c2ccc(OCCOCc3ccccc3)cc2)nc1C(=O)NS(C)(=O)=O [Example 209, 2-[N-benzyl-4-(2-benzyloxyethoxy)anilino]-5-methyl-N-methylsulfonyl-thiazole-4-carboxamide]
  EC50: > 2000 nM

## Cc1sc(N(Cc2ccccc2)c2cccc(OCCO)c2)nc1C(=O)NS(C)(=O)=O [Example 210, 2-[N-benzyl-3-(2-hydroxyethoxy)anilino]-5-methyl-N-methylsulfonyl-thiazole-4-carboxamide]
  EC50: > 2000 nM

## Cc1sc(N(Cc2ccccc2)c2ccc(OCCO)cc2)nc1C(=O)NS(C)(=O)=O [Example 211, 2-[N-benzyl-4-(2-hydroxyethoxy)anilino]-5-methyl-N-methylsulfonyl-thiazole-4-carboxamide]
  EC50: > 2000 nM

## Cc1sc(N(Cc2ccccc2)c2ccc(OCC(=O)O)cc2)nc1C(=O)NS(C)(=O)=O [Example 212, 2-[4-[benzyl-[5-methyl-4-(methylsulfonylcarbamoyl)thiazol-2-yl]amino]phenoxy]acetic acid]
  EC50: > 2000 nM

## CNC(=O)COc1ccc(N(Cc2ccccc2)c2nc(C(=O)NS(C)(=O)=O)c(C)s2)cc1 [Example 213, 2-[N-benzyl-4-[2-(methylamino)-2-oxo-ethoxy]anilino]-5-methyl-N-methylsulfonyl-thiazole-4-carboxamide]
  EC50: > 2000 nM

## Cc1sc(N(Cc2ccccc2)c2ccc(OCC(=O)N(C)C)cc2)nc1C(=O)NS(C)(=O)=O [Example 214, 2-[N-benzyl-4-[2-(dimethylamino)-2-oxo-ethoxy]anilino]-5-methyl-N-methylsulfonyl-thiazole-4-carboxamide]
  EC50: > 2000 nM

## Cc1sc(N(Cc2ccccc2)c2cccc(C(F)(F)F)c2)nc1C(=O)NS(C)(=O)=O [Example 224, 2-[N-benzyl-3-(trifluoromethyl)anilino]-5-methyl-N-methylsulfonyl-thiazole-4-carboxamide]
  EC50: 1260 nM

## Cc1sc(N(Cc2ccccc2)c2cccc(C#N)c2)nc1C(=O)NS(C)(=O)=O [Example 225, 2-(N-benzyl-3-cyano-anilino)-5-methyl-N-methylsulfonyl-thiazole-4-carboxamide]
  EC50: > 2000 nM

## Cc1sc(N(Cc2ccccc2)c2ccc(CO)cc2)nc1C(=O)NS(C)(=O)=O [Example 226, 2-[N-benzyl-4-(hydroxymethyl)anilino]-5-methyl-N-methylsulfonyl-thiazole-4-carboxamide]
  EC50: > 2000 nM

## Cc1sc(N(Cc2ccccc2)c2cccc3ccccc23)nc1C(=O)NS(C)(=O)=O [Example 227, 2-[benzyl(1-naphthyl)amino]-5-methyl-N-methylsulfonyl-thiazole-4-carboxamide]
  EC50: > 2000 nM

## Cc1sc(N(Cc2ccccc2)c2ccccc2C(F)(F)F)nc1C(=O)NS(C)(=O)=O [Example 228, 2-[N-benzyl-2-(trifluoromethyl)anilino]-5-methyl-N-methylsulfonyl-thiazole-4-carboxamide]
  EC50: > 2000 nM

## Cc1sc(N(Cc2ccccc2)c2cccc(CO)c2)nc1C(=O)NS(C)(=O)=O [Example 229, 2-[N-benzyl-3-(hydroxymethyl)anilino]-5-methyl-N-methylsulfonyl-thiazole-4-carboxamide]
  EC50: > 2000 nM

## Cc1sc(N(Cc2ccccc2)c2cccc(CCOCc3ccccc3)c2)nc1C(=O)NS(C)(=O)=O [Example 231, 2-[N-benzyl-3-(2-benzyloxyethyl)anilino]-5-methyl-N-methylsulfonyl-thiazole-4-carboxamide]
  EC50: > 2000 nM

## Cc1sc(N(Cc2ccccc2)c2ccccc2C#N)nc1C(=O)NS(C)(=O)=O [Example 233, 2-(N-benzyl-2-cyano-anilino)-5-methyl-N-methylsulfonyl-thiazole-4-carboxamide]
  EC50: > 2000 nM

## Cc1sc(N(Cc2ccccc2)c2ccc(CCO)cc2)nc1C(=O)NS(C)(=O)=O [Example 234, 2-[N-benzyl-4-(2-hydroxyethyl)anilino]-5-methyl-N-methylsulfonyl-thiazole-4-carboxamide]
  EC50: > 2000 nM

## Cc1sc(N(Cc2ccccc2)c2ccc(CCOCc3ccccc3)cc2)nc1C(=O)NS(C)(=O)=O [Example 235, 2-[N-benzyl-4-(2-benzyloxyethyl)anilino]-5-methyl-N-methylsulfonyl-thiazole-4-carboxamide]
  EC50: > 2000 nM

## Cc1sc(N(Cc2ccccc2)c2ccnc3ccccc23)nc1C(=O)NS(C)(=O)=O [Example 236, 2-[benzyl(4-quinolyl)amino]-5-methyl-N-methylsulfonyl-thiazole-4-carboxamide]
  EC50: > 2000 nM

## Cc1sc(N(Cc2ccccc2)c2ccc(C(F)(F)F)nn2)nc1C(=O)NS(C)(=O)=O [Example 237, 2-[benzyl-[6-(trifluoromethyl)pyridazin-3-yl]amino]-5-methyl-N-methylsulfonyl-thiazole-4-carboxamide]
  EC50: 631 nM
